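48-hour exposure; five concentrations; linearly interpolated endpoints. GI50 = concentration required for 50% inhibition of growth.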 Activity calls are given as the source filed them. Cut-off read from the data, not from the text of the source: active = GI50 up to about 1.1 µM and inactive = higher.
Legend:
Test in all cases: NCI-60 cell line screen, 48 h
HCT-116 = tested on: HCT-116
SK-MEL-2 = tested on: SK-MEL-2
Hs-578T = tested on: Hs-578T
A549 = tested on: A549
ACHN = tested on: ACHN
OVCAR-3 = tested on: OVCAR-3
M14 = tested on: M14
MDA-MB-435 = tested on: MDA-MB-435
SK-MEL-5 = tested on: SK-MEL-5
SN12C = tested on: SN12C
UO-31 = tested on: UO-31
HT-29 = tested on: HT-29
EKVX = tested on: EKVX
OVCAR-8 = tested on: OVCAR-8
SW-620 = tested on: SW-620
BT-549 = tested on: BT-549
NCI-H522 = tested on: NCI-H522
MDA-MB-231 = tested on: MDA-MB-231
RPMI-8226 = tested on: RPMI-8226
HCT-15 = tested on: HCT-15

C=CCN1C(=O)/C(=C\c2cc(C(C)(C)C)c(O)c(C(C)(C)C)c2)NC1=S
GI50 (HCT-116): 12.7 µM (inactive) | GI50 (SK-MEL-2): 14.1 µM (inactive) | GI50 (Hs-578T): 48.2 µM (inactive) | GI50 (A549): 24.3 µM (inactive) | GI50 (ACHN): 26.5 µM (inactive) | GI50 (OVCAR-3): 12.1 µM (inactive) | GI50 (M14): 26 µM (inactive) | GI50 (MDA-MB-435): 24 µM (inactive) | GI50 (SK-MEL-5): 15.9 µM (inactive) | GI50 (SN12C): 23.1 µM (inactive) | GI50 (UO-31): 28.8 µM (inactive) | GI50 (HT-29): 17.3 µM (inactive) | GI50 (EKVX): 19.9 µM (inactive) | GI50 (OVCAR-8): 33.9 µM (inactive) | GI50 (SW-620): 20.6 µM (inactive) | GI50 (BT-549): 33.9 µM (inactive) | GI50 (NCI-H522): 12.4 µM (inactive) | GI50 (MDA-MB-231): 15.9 µM (inactive) | GI50 (RPMI-8226): 7.87 µM (inactive) | GI50 (HCT-15): 22.2 µM

O=c1[nH]c(=O)n(C/C=C/CO)nc1Br
GI50 (HCT-116): > 100 µM (inactive) | GI50 (SK-MEL-2): > 100 µM (inactive) | GI50 (Hs-578T): > 100 µM (inactive) | GI50 (A549): > 100 µM (inactive) | GI50 (ACHN): > 100 µM (inactive) | GI50 (OVCAR-3): > 100 µM (inactive) | GI50 (M14): > 100 µM (inactive) | GI50 (MDA-MB-435): > 100 µM (inactive) | GI50 (SK-MEL-5): > 100 µM (inactive) | GI50 (SN12C): > 100 µM (inactive) | GI50 (UO-31): > 100 µM (inactive) | GI50 (HT-29): > 100 µM (inactive) | GI50 (EKVX): > 100 µM (inactive) | GI50 (OVCAR-8): > 100 µM (inactive) | GI50 (SW-620): > 100 µM (inactive) | GI50 (BT-549): > 100 µM (inactive) | GI50 (NCI-H522): > 100 µM (inactive) | GI50 (MDA-MB-231): > 100 µM (inactive) | GI50 (RPMI-8226): > 100 µM (inactive) | GI50 (HCT-15): > 100 µM

CC1(CCc2ccccc2)CC1(Br)Br (stereo not given)
GI50 (HCT-116): 30.3 µM (inactive) | GI50 (SK-MEL-2): 17.8 µM (inactive) | GI50 (Hs-578T): 42.9 µM (inactive) | GI50 (A549): 32.9 µM (inactive) | GI50 (ACHN): 26.3 µM (inactive) | GI50 (OVCAR-3): 18 µM (inactive) | GI50 (M14): 44.8 µM (inactive) | GI50 (MDA-MB-435): 25.5 µM (inactive) | GI50 (SK-MEL-5): 13.1 µM (inactive) | GI50 (SN12C): 18 µM (inactive) | GI50 (UO-31): 39.4 µM (inactive) | GI50 (HT-29): 30.4 µM (inactive) | GI50 (EKVX): 19.1 µM (inactive) | GI50 (OVCAR-8): 23.6 µM (inactive) | GI50 (SW-620): > 100 µM (inactive) | GI50 (BT-549): > 100 µM (inactive) | GI50 (NCI-H522): 23 µM (inactive) | GI50 (MDA-MB-231): 73.1 µM (inactive) | GI50 (RPMI-8226): 18.6 µM (inactive) | GI50 (HCT-15): 54.8 µM

Cc1cc(CN(Cc2ccccc2)Cc2nc3ccccc3[nH]2)c(O)c(CN(Cc2nc3ccccc3[nH]2)Cc2nc3ccccc3[nH]2)c1
GI50 (HCT-116): 4.16 µM (inactive) | GI50 (SK-MEL-2): 10.8 µM (inactive) | GI50 (Hs-578T): 15.6 µM (inactive) | GI50 (A549): 8.79 µM (inactive) | GI50 (ACHN): 3.38 µM (inactive) | GI50 (OVCAR-3): 6.5 µM (inactive) | GI50 (M14): 5.94 µM (inactive) | GI50 (MDA-MB-435): 7.52 µM (inactive) | GI50 (SK-MEL-5): 6.73 µM (inactive) | GI50 (SN12C): 8.41 µM (inactive) | GI50 (UO-31): 7.03 µM (inactive) | GI50 (HT-29): 4.11 µM (inactive) | GI50 (EKVX): 11.4 µM (inactive) | GI50 (OVCAR-8): 4.18 µM (inactive) | GI50 (SW-620): 14.1 µM (inactive) | GI50 (BT-549): 4.76 µM (inactive) | GI50 (NCI-H522): 16.2 µM (inactive) | GI50 (MDA-MB-231): 12.4 µM (inactive) | GI50 (RPMI-8226): 4.81 µM (inactive) | GI50 (HCT-15): 2.81 µM

O=c1c2ccccc2sc2c(CO)ccc(NCCN3CCCCC3)c12
GI50 (HCT-116): 2.38 µM (inactive) | GI50 (SK-MEL-2): 4.47 µM (inactive) | GI50 (Hs-578T): 4.38 µM (inactive) | GI50 (A549): 3.46 µM (inactive) | GI50 (ACHN): 2.39 µM (inactive) | GI50 (OVCAR-3): 2.22 µM (inactive) | GI50 (M14): 1.93 µM (inactive) | GI50 (MDA-MB-435): 2.64 µM (inactive) | GI50 (SK-MEL-5): 1.69 µM (inactive) | GI50 (SN12C): 3.27 µM (inactive) | GI50 (UO-31): 1.88 µM (inactive) | GI50 (HT-29): 2.94 µM (inactive) | GI50 (EKVX): 4.66 µM (inactive) | GI50 (OVCAR-8): 3.56 µM (inactive) | GI50 (SW-620): 2.25 µM (inactive) | GI50 (BT-549): 10.8 µM (inactive) | GI50 (NCI-H522): 1.58 µM (inactive) | GI50 (MDA-MB-231): 5.48 µM (inactive) | GI50 (RPMI-8226): 1.91 µM (inactive) | GI50 (HCT-15): 3.56 µM

Brc1ccc2[nH]cc(-c3csc(-c4ccccn4)n3)c2c1
GI50 (HCT-116): 15.1 µM (inactive) | GI50 (SK-MEL-2): 44.8 µM (inactive) | GI50 (Hs-578T): > 75.2 µM (inactive) | GI50 (A549): 14.5 µM (inactive) | GI50 (ACHN): 5.85 µM (inactive) | GI50 (OVCAR-3): 9.31 µM (inactive) | GI50 (M14): 22.2 µM (inactive) | GI50 (MDA-MB-435): 41.8 µM (inactive) | GI50 (SK-MEL-5): 16.4 µM (inactive) | GI50 (SN12C): 14.4 µM (inactive) | GI50 (UO-31): 59.7 µM (inactive) | GI50 (HT-29): 5.12 µM (inactive) | GI50 (EKVX): 9.44 µM (inactive) | GI50 (OVCAR-8): 26.9 µM (inactive) | GI50 (SW-620): 18.4 µM (inactive) | GI50 (BT-549): > 89.3 µM (inactive) | GI50 (NCI-H522): 8.95 µM (inactive) | GI50 (MDA-MB-231): 22.9 µM (inactive) | GI50 (RPMI-8226): 7.8 µM (inactive) | GI50 (HCT-15): 16.9 µM

Fc1cccc(F)c1C1SCc2nc3ccc(Cl)cc3n21 (stereo not given)
GI50 (HCT-116): > 100 µM (inactive) | GI50 (SK-MEL-2): > 100 µM (inactive) | GI50 (Hs-578T): > 100 µM (inactive) | GI50 (A549): > 100 µM (inactive) | GI50 (ACHN): > 100 µM (inactive) | GI50 (OVCAR-3): > 100 µM (inactive) | GI50 (M14): > 100 µM (inactive) | GI50 (MDA-MB-435): > 100 µM (inactive) | GI50 (SK-MEL-5): 85.3 µM (inactive) | GI50 (SN12C): > 100 µM (inactive) | GI50 (UO-31): > 100 µM (inactive) | GI50 (HT-29): > 85.7 µM (inactive) | GI50 (EKVX): > 100 µM (inactive) | GI50 (OVCAR-8): > 100 µM (inactive) | GI50 (SW-620): > 100 µM (inactive) | GI50 (BT-549): > 100 µM (inactive) | GI50 (NCI-H522): > 100 µM (inactive) | GI50 (MDA-MB-231): > 100 µM (inactive) | GI50 (RPMI-8226): 82.4 µM (inactive) | GI50 (HCT-15): > 100 µM

COc1cccc(CCN2CCN(CCCc3ccccc3)CC2)c1
GI50 (HCT-116): 53.7 µM (inactive) | GI50 (SK-MEL-2): > 100 µM (inactive) | GI50 (Hs-578T): > 100 µM (inactive) | GI50 (A549): 94.6 µM (inactive) | GI50 (ACHN): > 100 µM (inactive) | GI50 (OVCAR-3): 64.6 µM (inactive) | GI50 (M14): 21.2 µM (inactive) | GI50 (MDA-MB-435): 85.9 µM (inactive) | GI50 (SK-MEL-5): 19.4 µM (inactive) | GI50 (SN12C): > 100 µM (inactive) | GI50 (UO-31): 51.1 µM (inactive) | GI50 (HT-29): 31.8 µM (inactive) | GI50 (EKVX): > 100 µM (inactive) | GI50 (OVCAR-8): > 100 µM (inactive) | GI50 (SW-620): > 100 µM (inactive) | GI50 (BT-549): 40.1 µM (inactive) | GI50 (NCI-H522): 22.6 µM (inactive) | GI50 (MDA-MB-231): > 100 µM (inactive) | GI50 (RPMI-8226): 32.6 µM (inactive) | GI50 (HCT-15): 31.7 µM

CC[N+](C)(CC)CCC(O)(c1ccccc1)c1ccccc1
GI50 (HCT-116): > 100 µM (inactive) | GI50 (SK-MEL-2): > 100 µM (inactive) | GI50 (Hs-578T): > 100 µM (inactive) | GI50 (A549): > 100 µM (inactive) | GI50 (ACHN): > 100 µM (inactive) | GI50 (OVCAR-3): > 100 µM (inactive) | GI50 (M14): > 100 µM (inactive) | GI50 (MDA-MB-435): > 100 µM (inactive) | GI50 (SK-MEL-5): > 100 µM (inactive) | GI50 (SN12C): > 100 µM (inactive) | GI50 (UO-31): > 100 µM (inactive) | GI50 (HT-29): > 100 µM (inactive) | GI50 (EKVX): > 100 µM (inactive) | GI50 (OVCAR-8): > 100 µM (inactive) | GI50 (SW-620): > 100 µM (inactive) | GI50 (BT-549): > 100 µM (inactive) | GI50 (NCI-H522): > 100 µM (inactive) | GI50 (MDA-MB-231): > 100 µM (inactive) | GI50 (RPMI-8226): > 100 µM (inactive) | GI50 (HCT-15): > 100 µM

O=C1Nc2ccccc2/C1=N/NC(=S)NCc1ccccn1
GI50 (HCT-116): < 0.01 µM (active) | GI50 (SK-MEL-2): 2.9 µM (inactive) | GI50 (Hs-578T): 6.14 µM (inactive) | GI50 (A549): 0.466 µM (active) | GI50 (ACHN): 0.2 µM (active) | GI50 (OVCAR-3): < 0.01 µM (active) | GI50 (M14): 0.312 µM (active) | GI50 (MDA-MB-435): 0.931 µM (active) | GI50 (SK-MEL-5): 0.551 µM (active) | GI50 (SN12C): 1.27 µM (inactive) | GI50 (UO-31): 0.373 µM (active) | GI50 (HT-29): 0.0462 µM (active) | GI50 (EKVX): 0.294 µM (active) | GI50 (OVCAR-8): 0.346 µM (active) | GI50 (SW-620): 0.126 µM (active) | GI50 (BT-549): 1.09 µM (active) | GI50 (NCI-H522): 0.17 µM (active) | GI50 (MDA-MB-231): 0.0721 µM (active) | GI50 (RPMI-8226): < 0.01 µM (active) | GI50 (HCT-15): 0.0326 µM

— ChEMBL document CHEMBL1201862, “PubChem BioAssay data set” (2004)
